Results taken from patent publication US11447493B2 (Kinnate Biopharma Inc., priority 2018, dated 2022).

Legend:
[1] = biological target: CDK2 (Homo sapiens (Human), UniProt P24941); assay: Radiometric protein kinase assay (33PanQinase), Assay Condition B (thiol-free); format: biochemical; conditions: thiol-free (1 mM TCEP)
Protocol: The IC50 profile of compounds was determined using one protein kinase in a customized, thiol free assay. […] Prior to testing, the 1×10^−03 M stock solutions in column 2 of the master plates were subjected to a serial, semi-logarithmic dilution using 100% DMSO as a solvent. […] Column 1 and 7 were filled with 100% DMSO as controls. Subsequently, 2×10 microliter from each well of the serial diluted copy plates were aliquoted with a 96 channel pipettor into two identical sets of “compound dilution plates”. All plates were barcoded for automated identification and tracking purposes. […] All compounds were stored as powder until being solubilized in DMSO. Solubilized compounds were stored as 1×10^−02M/100% DMSO stock solutions. Prior to the assay process, 90 microliters of H2O were added to each well of a set of compound dilution plates. To minimize potential precipitation, the H2O was added to each plate only a few minutes before the transfer of the compound solutions into the assay plates. Each plate was shaken thoroughly, resulting in compound dilution plates with a final of 10% DMSO. For each assay, 5 microliters of solution from each well of the compound dilution plates/10% DMSO were transferred into the assay plate. The final volume of the assay was 50 μl. All compounds were tested at 10 final assay concentrations in the range from 1×10^−05M to 3×10^−10 M, in singlicate. The final DMSO concentration in the reaction cocktails was 1% in all cases. […]
For data analysis, the median value of the counts in column 1 (n=8) of each assay plate was defined as “low control”. This value reflects unspecific binding of radioactivity to the plate in the absence of a protein kinase but in the presence of the substrate. […] The residual activity (in %) for each well of a particular plate was calculated by using the following formula: Res. Activity (%)=100×[(cpm of compound−low control)/(high control−low control)]
The residual activities for each concentration and the compound IC50 values were calculated using Quattro Workflow V3.1.1 (Quattro Research GmbH, Munich, Germany; www.quattro-research.com). […]

[2] = biological target: CDK12 wt/CycK (Homo sapiens (Human), UniProt Q9NYV4); assay: Radiometric protein kinase assay (33PanQinase), Assay Condition A (thiol containing); format: biochemical; conditions: thiol containing (1.2 mM DTT), ATP 0.3 μM
How it was run: (§1)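 Recombinant human kinases assayed radiometrically (33PanQinase) with 33P-ATP incorporation into substrate, 60 min at 30° C, thiol-containing buffer, 1% DMSO final. Ten concentrations from 1×10^−04M to 3×10^−09M tested in singlicate. Residual activity normalized to no-enzyme and no-inhibitor controls; IC50 by least-squares fit.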

[3] = biological target: CDK2/CycA2 (Homo sapiens (Human), UniProt P24941); assay: as above; format: biochemical; conditions: thiol containing (1.2 mM DTT), ATP 0.3 μM
How it was run: as §1

[4] = biological target: CDK12 (Homo sapiens (Human), UniProt Q9NYV4); assay: Radiometric protein kinase assay (33PanQinase), Assay Condition B (thiol-free); format: biochemical; conditions: thiol-free (1 mM TCEP)
Protocol: The IC50 profile of compounds was determined using one protein kinase in a customized, thiol free assay. […] Prior to testing, the 1×10^−03 M stock solutions in column 2 of the master plates were subjected to a serial, semi-logarithmic dilution using 100% DMSO as a solvent. […] Column 1 and 7 were filled with 100% DMSO as controls. Subsequently, 2×10 microliter from each well of the serial diluted copy plates were aliquoted with a 96 channel pipettor into two identical sets of “compound dilution plates”. All plates were barcoded for automated identification and tracking purposes. […] All compounds were stored as powder until being solubilized in DMSO. Solubilized compounds were stored as 1×10^−02M/100% DMSO stock solutions. Prior to the assay process, 90 microliters of H2O were added to each well of a set of compound dilution plates. To minimize potential precipitation, the H2O was added to each plate only a few minutes before the transfer of the compound solutions into the assay plates. Each plate was shaken thoroughly, resulting in compound dilution plates with a final of 10% DMSO. For each assay, 5 microliters of solution from each well of the compound dilution plates/10% DMSO were transferred into the assay plate. The final volume of the assay was 50 μl. All compounds were tested at 10 final assay concentrations in the range from 1×10^−05M to 3×10^−10 M, in singlicate. The final DMSO concentration in the reaction cocktails was 1% in all cases. […] This was done so there would be no interference with the key cysteines in the proteins of interest.
For data analysis, the median value of the counts in column 1 (n=8) of each assay plate was defined as “low control”. This value reflects unspecific binding of radioactivity to the plate in the absence of a protein kinase but in the presence of the substrate. The median value of the counts in column 7 of each assay plate (n=8) was taken as the “high control”, i.e. full activity in the absence of any inhibitor. The difference between high and low control was taken as 100% activity. As part of the data evaluation the low control value from a particular plate was subtracted from the high control value as well as from all 80 “compound values” of the corresponding plate. The residual activity (in %) for each well of a particular plate was calculated by using the following formula: Res. Activity (%)=100×[(cpm of compound−low control)/(high control−low control)]
The fitting method used was a least-squares fit.

[5] = biological target: CDK7/CycH/MAT1 (Homo sapiens (Human), UniProt P50613); assay: Radiometric protein kinase assay (33PanQinase), Assay Condition A (thiol containing); format: biochemical; conditions: thiol containing (1.2 mM DTT), ATP 3.0 μM
How it was run: as §1

[6] = system: panel of 1,151 cancer cell lines; conditions: in 52% of a panel of 1,151 cancer cell lines (Kwiatkowski, 2014); cited from earlier work

Chain of CDK12 wt/CycK (Q9NYV4 whole entry): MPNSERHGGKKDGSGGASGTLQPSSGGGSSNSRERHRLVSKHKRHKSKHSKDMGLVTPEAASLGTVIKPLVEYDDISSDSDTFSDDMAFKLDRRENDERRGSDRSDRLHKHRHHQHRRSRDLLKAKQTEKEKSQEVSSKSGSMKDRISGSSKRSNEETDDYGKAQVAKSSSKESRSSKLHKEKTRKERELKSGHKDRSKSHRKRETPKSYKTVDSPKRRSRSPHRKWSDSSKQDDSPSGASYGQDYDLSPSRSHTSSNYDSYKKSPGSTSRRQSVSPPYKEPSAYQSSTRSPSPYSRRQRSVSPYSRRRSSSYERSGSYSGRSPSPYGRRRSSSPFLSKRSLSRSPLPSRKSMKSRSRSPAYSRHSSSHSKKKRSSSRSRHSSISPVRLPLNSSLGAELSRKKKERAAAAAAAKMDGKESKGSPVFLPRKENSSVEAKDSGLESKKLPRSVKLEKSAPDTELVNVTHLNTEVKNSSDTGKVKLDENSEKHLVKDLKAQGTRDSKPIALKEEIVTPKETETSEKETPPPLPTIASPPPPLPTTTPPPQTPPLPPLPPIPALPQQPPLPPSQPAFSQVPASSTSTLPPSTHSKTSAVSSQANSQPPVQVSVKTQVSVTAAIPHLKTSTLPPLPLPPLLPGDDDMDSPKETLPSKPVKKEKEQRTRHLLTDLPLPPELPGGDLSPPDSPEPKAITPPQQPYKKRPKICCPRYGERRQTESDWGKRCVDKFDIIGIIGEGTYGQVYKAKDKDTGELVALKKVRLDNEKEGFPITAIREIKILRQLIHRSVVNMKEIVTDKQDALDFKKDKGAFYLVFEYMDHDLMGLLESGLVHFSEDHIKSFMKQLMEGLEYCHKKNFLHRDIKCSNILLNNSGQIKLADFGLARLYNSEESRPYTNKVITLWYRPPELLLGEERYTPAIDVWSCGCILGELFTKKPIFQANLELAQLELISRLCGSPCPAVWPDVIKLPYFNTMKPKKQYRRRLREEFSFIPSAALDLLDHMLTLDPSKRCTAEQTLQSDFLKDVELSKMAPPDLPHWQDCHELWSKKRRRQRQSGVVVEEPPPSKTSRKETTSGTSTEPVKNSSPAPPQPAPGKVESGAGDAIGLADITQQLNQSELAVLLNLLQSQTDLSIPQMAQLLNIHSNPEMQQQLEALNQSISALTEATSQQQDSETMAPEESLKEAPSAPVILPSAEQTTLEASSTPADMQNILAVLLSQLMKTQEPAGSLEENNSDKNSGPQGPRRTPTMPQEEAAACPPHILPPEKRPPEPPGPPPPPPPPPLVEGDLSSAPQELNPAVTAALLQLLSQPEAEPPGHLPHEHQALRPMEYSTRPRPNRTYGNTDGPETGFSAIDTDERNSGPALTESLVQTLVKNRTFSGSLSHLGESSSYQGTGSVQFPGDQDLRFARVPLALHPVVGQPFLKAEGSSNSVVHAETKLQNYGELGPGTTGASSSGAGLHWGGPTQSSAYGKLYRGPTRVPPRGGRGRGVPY
Chain of CDK12 wt/CycK (O75909 whole entry partner): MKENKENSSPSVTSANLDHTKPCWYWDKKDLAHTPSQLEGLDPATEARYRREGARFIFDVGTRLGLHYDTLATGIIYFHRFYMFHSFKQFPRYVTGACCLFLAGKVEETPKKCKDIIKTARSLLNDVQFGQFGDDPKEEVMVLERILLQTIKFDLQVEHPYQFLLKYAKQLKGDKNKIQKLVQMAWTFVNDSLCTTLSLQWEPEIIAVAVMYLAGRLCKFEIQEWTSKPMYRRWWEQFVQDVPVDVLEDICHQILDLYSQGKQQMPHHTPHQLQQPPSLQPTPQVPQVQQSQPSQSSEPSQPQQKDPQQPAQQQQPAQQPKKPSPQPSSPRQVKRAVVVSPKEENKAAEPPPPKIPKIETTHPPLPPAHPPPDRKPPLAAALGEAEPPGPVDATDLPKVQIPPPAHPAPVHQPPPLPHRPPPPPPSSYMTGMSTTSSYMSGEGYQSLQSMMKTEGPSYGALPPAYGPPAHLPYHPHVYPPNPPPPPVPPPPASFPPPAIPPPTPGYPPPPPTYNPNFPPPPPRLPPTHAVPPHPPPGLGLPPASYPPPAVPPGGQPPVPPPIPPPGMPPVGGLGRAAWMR
Chain of CDK12 (Q9NYV4 whole entry): as the sequence (Q9NYV4 whole entry) above
Chain of CDK12 (O75909 whole entry partner): as the sequence (O75909 whole entry partner) above
Chain of CDK7/CycH/MAT1 (P50613 whole entry): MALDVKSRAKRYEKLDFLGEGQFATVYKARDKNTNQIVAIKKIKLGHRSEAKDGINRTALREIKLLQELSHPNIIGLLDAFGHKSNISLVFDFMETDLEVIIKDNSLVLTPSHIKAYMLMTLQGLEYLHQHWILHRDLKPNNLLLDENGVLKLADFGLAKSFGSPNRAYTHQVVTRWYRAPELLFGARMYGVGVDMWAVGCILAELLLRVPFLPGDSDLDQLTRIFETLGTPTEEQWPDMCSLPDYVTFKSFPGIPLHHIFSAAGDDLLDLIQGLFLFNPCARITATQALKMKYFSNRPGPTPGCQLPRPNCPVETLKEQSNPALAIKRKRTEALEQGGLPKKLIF
Chain of CDK7/CycH/MAT1 (P51946 whole entry partner): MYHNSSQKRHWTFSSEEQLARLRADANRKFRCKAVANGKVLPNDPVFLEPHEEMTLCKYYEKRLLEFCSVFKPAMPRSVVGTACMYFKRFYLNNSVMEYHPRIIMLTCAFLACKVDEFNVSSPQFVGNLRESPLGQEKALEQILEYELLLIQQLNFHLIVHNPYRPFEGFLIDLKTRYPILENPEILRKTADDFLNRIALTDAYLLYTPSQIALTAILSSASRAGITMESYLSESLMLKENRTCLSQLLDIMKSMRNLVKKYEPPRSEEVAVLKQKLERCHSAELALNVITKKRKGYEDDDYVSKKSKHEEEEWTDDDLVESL
Chain of CDK7/CycH/MAT1 (P51948 whole entry partner): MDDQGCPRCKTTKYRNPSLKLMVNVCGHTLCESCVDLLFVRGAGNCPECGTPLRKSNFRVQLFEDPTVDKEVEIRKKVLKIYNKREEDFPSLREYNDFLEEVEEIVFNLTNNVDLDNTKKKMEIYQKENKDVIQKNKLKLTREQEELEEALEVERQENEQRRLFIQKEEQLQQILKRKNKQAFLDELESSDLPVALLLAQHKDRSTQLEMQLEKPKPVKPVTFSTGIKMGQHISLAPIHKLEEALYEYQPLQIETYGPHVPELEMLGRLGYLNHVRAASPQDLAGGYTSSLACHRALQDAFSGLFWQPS

Compound | IC50 [1] [nM] | IC50 [2] [nM] | IC50 [3] [nM] | IC50 [4] [nM] | IC50 [5] [nM] | IC50 [6] [nM]
C=CC(=O)Nc1ccc(C(=O)N2CC[C@@H](Nc3ncc4ccccc4n3)C2)cc1Cl [Example 88, (R)—N-(2-chloro-4-(3-(quinazolin-2-ylamino)pyrrolidine-1-carbonyl)phenyl)acrylamide] | 1000 to 10000 | ≤ 100 | 1000 to 10000 | < 100 |  | 
C=CC(=O)Nc1ccc(C(=O)N2CC[C@@H](Nc3ncc4ccccc4n3)C2)cc1C [Example 72, (R)—N-(2-methyl-4-(3-(quinazolin-2-ylamino)pyrrolidine-1-carbonyl)phenyl)acrylamide] | 1000 to 10000 | ≤ 100 | 1000 to 10000 | < 100 | 1000 to 10000 | 
CN(C)C/C=C/C(=O)Nc1ccc(C(=O)Nc2cccc(Nc3ncc(Cl)c(-c4c[nH]c5ccccc45)n3)c2)cc1 [THZ1] |  |  |  |  |  | < 200
